From PubChem BioAssay AID588652 (The Scripps Research Institute Molecular Screening Center, 2011)

Target: Krueppel-like factor 5 (Homo sapiens) (UniProt Q13887)
Assay: KLF5 protein abundance by immunoblot – western blot, chemiluminescence, HCT116 colorectal cells, counter-screen for KLF5 inhibitor project, late-stage follow-up (AID 588652)
Conditions: HCT116 KLF5 protein level, 24 h, at 10 µM, hits give high values

Krueppel-like factor 5 (Homo sapiens), sequence (Q13887 whole entry, looked up): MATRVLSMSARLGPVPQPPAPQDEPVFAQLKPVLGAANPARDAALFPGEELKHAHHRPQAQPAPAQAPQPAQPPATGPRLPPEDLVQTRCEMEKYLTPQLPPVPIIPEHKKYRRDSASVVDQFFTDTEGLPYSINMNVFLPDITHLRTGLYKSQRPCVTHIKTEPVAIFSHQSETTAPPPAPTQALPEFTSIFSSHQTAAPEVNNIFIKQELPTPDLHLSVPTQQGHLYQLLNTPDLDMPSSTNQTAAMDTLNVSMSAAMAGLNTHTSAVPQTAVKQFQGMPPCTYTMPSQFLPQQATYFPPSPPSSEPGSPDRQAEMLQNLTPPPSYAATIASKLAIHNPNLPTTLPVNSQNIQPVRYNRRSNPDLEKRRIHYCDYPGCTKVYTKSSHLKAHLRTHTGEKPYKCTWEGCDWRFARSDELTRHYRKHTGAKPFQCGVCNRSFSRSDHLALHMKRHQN

`CN(C(=O)COC(=O)/C=C/c1cccc([N+](=O)[O-])c1)C1CCS(=O)(=O)C1` (stereo unspecified) was tested. Which inhibition did it give?
Its inhibition is 62.6%.
